Patent publication US20240308996A1, “PYRIDOPYRIDINES AND DERIVATIVES THEREOF AS SELECTIVE KINASE INHIBITORS” (University of Sharjah, priority 2023, published 2024)
pIC50: −log10 of the molar value.

Legend:
Assay type in all cases: cell-based
[1] = system: UACC-62; experiment: NCI-60 cell line panel: UACC-62; details: Melanoma
Experimental: (§1) It was carried out at the NCI, Bethesda, MD, USA, utilizing their standard protocol.

[2] = system: SNB-75; experiment: NCI-60 cell line panel: SNB-75; set-up: TGI: unit not given here; details: CNS Cancer
Experimental: as §1

[3] = system: CAKI-1; experiment: NCI-60 cell line panel: CAKI-1; set-up: TGI: unit not given here; details: Renal Cancer
Experimental: as §1

[4] = system: HCT-116; experiment: NCI-60 cell line panel: HCT-116; details: Colon Cancer
Experimental: as §1

[5] = system: SK-MEL-2; experiment: NCI-60 cell line panel: SK-MEL-2; set-up: TGI: unit not given here; details: Melanoma
Experimental: as §1

[6] = system: 786-0; experiment: NCI-60 cell line panel: 786-0; details: Renal Cancer
Experimental: as §1

[7] = system: MDA-MB-231/ATCC; experiment: NCI-60 cell line panel: MDA-MB-231/ATCC; details: Breast Cancer
Experimental: as §1

[8] = system: SK-MEL-28; experiment: NCI-60 cell line panel: SK-MEL-28; details: Melanoma
Experimental: as §1

[9] = system: ACHN; experiment: NCI-60 cell line panel: ACHN; details: Renal Cancer
Experimental: as §1

[10] = system: COLO 205; experiment: NCI-60 cell line panel: COLO 205; set-up: TGI: unit not given here; details: Colon Cancer
Experimental: as §1

[11] = system: OVCAR-3; experiment: NCI-60 cell line panel: OVCAR-3; details: Ovarian Cancer
Experimental: as §1

[12] = system: SF-539; experiment: NCI-60 cell line panel: SF-539; details: CNS Cancer
Experimental: as §1

[13] = system: OVCAR-4; experiment: NCI-60 cell line panel: OVCAR-4; details: Ovarian Cancer
Experimental: as §1

[14] = system: NCI-H522; experiment: NCI-60 cell line panel: NCI-H522; set-up: TGI: unit not given here; details: Non-Small Cell Lung Cancer
Experimental: as §1

[15] = system: MALME-3M; experiment: NCI-60 cell line panel: MALME-3M; details: Melanoma
Experimental: as §1

[16] = system: SW-620; experiment: NCI-60 cell line panel: SW-620; details: Colon Cancer
Experimental: as §1

[17] = system: HS 578T; experiment: NCI-60 cell line panel: HS 578T
Experimental: as §1

[18] = system: NCI-H460; experiment: NCI-60 cell line panel: NCI-H460; details: Non-Small Cell Lung Cancer
Experimental: as §1

[19] = system: EKVX; experiment: NCI-60 cell line panel: EKVX; details: Non-Small Cell Lung Cancer
Experimental: as §1

[20] = system: UACC-257; experiment: NCI-60 cell line panel: UACC-257; details: Melanoma
Experimental: as §1

[21] = system: SF-295; experiment: NCI-60 cell line panel: SF-295; details: CNS Cancer
Experimental: as §1

[22] = system: IGROV1; experiment: NCI-60 cell line panel: IGROV1
Experimental: as §1

[23] = system: HOP-62; experiment: NCI-60 cell line panel: HOP-62; details: Non-Small Cell Lung Cancer
Experimental: as §1

[24] = system: HT29; experiment: NCI-60 cell line panel: HT29
Experimental: as §1

[25] = system: TK-10; experiment: NCI-60 cell line panel: TK-10; details: Renal Cancer
Experimental: as §1

[26] = system: SN12C; experiment: NCI-60 cell line panel: SN12C; details: Renal Cancer
Experimental: as §1

[27] = system: K-562; experiment: NCI-60 cell line panel: K-562; set-up: TGI: unit not given here
Experimental: as §1

[28] = system: BT-549; experiment: NCI-60 cell line panel: BT-549; details: Breast Cancer
Experimental: as §1

[29] = system: U251; experiment: NCI-60 cell line panel: U251; set-up: TGI: unit not given here
Experimental: as §1

[30] = system: NCI/ADR-RES; experiment: NCI-60 cell line panel: NCI/ADR-RES; set-up: TGI: unit not given here; details: Ovarian Cancer
Experimental: as §1

[31] = system: SNB-19; experiment: NCI-60 cell line panel: SNB-19; details: CNS Cancer
Experimental: as §1

[32] = system: HCC-2998; experiment: NCI-60 cell line panel: HCC-2998; details: Colon Cancer
Experimental: as §1

[33] = system: MCF7; experiment: NCI-60 cell line panel: MCF7; details: Breast Cancer
Experimental: as §1

[34] = total growth inhibition, in µM (unit assumed)

Question: With `CC(C)NC(=O)c1cc(-c2ccc(NC(=O)Nc3ccc(N4CCN(C)CC4)c(C(F)(F)F)c3)cc2)nc2cccnc12` [Compound 13e, N-Isopropyl-2-(4-(3-(4-(4-methylpiperazin-1-yl)-3-(trifluoromethyl)phenyl)ureido)phenyl)-1,5-naphthyridine-4-carboxamide] as the molecule, how does the pIC50 ([1]; Homo sapiens) read?
Answer: Its pIC50 is 6.18.

Question: What about the TGI ([1]; total growth inhibition) of the same molecule?
Answer: The TGI was 1240 nM.

Question: What about the TGI ([2]; total growth inhibition) of the same molecule?
Answer: Its TGI is 3.97.

Question: And the pIC50 ([2]; Homo sapiens)?
Answer: The pIC50 was 6.23.

Question: And the pIC50 ([3]; Homo sapiens)?
Answer: The pIC50 was 6.19.

Question: What about the TGI ([3]; total growth inhibition) of the same molecule?
Answer: The TGI was 1.22.

Question: And the TGI ([4]; total growth inhibition)?
Answer: The TGI was 1350 nM.

Question: And the pIC50 ([4]; Homo sapiens)?
Answer: The pIC50 was 6.16.

Question: What about the pIC50 ([5]; Homo sapiens) of the same molecule?
Answer: Its pIC50 is 6.00.

Question: What about the TGI ([5]; total growth inhibition) of the same molecule?
Answer: Its TGI is 2.60.

Question: What about the pIC50 ([6]; Homo sapiens) of the same molecule?
Answer: Its pIC50 is 6.28.

Question: And the TGI ([6]; total growth inhibition)?
Answer: Its TGI is 1100 nM.

Question: And the TGI ([7]; total growth inhibition)?
Answer: Its TGI is 1260 nM.

Question: And the pIC50 ([7]; Homo sapiens)?
Answer: The pIC50 was 6.17.

Question: And the pIC50 ([8]; Homo sapiens)?
Answer: Its pIC50 is 6.19.

Question: What about the TGI ([8]; total growth inhibition) of the same molecule?
Answer: The TGI was 1170 nM.

Question: And the pIC50 ([9]; Homo sapiens)?
Answer: The pIC50 was 6.19.

Question: What about the TGI ([9]; total growth inhibition) of the same molecule?
Answer: The TGI was 1180 nM.

Question: What about the TGI ([10]; total growth inhibition) of the same molecule?
Answer: Its TGI is 1.86.

Question: And the pIC50 ([10]; Homo sapiens)?
Answer: The pIC50 was 6.07.

Question: And the pIC50 ([11]; Homo sapiens)?
Answer: Its pIC50 is 6.19.

Question: What about the TGI ([11]; total growth inhibition) of the same molecule?
Answer: Its TGI is 1330 nM.

Question: What about the TGI ([12]; total growth inhibition) of the same molecule?
Answer: The TGI was 990 nM.

Question: And the pIC50 ([12]; Homo sapiens)?
Answer: Its pIC50 is 6.30.

Question: What about the pIC50 ([13]; Homo sapiens) of the same molecule?
Answer: The pIC50 was 6.13.

Question: And the TGI [13, 34]?
Answer: The TGI was 1.62.

Question: What about the pIC50 ([14]; Homo sapiens) of the same molecule?
Answer: Its pIC50 is 6.17.

Question: What about the TGI ([14]; total growth inhibition) of the same molecule?
Answer: The TGI was 1.37.

Question: And the pIC50 ([15]; Homo sapiens)?
Answer: Its pIC50 is 6.19.

Question: What about the TGI [15, 34] of the same molecule?
Answer: The TGI was 1.18.

Question: And the TGI ([16]; total growth inhibition)?
Answer: Its TGI is 1300 nM.

Question: What about the pIC50 ([16]; Homo sapiens) of the same molecule?
Answer: The pIC50 was 6.17.

Question: And the TGI ([17]; Breast Cancer, HS 578T, total growth inhibition)?
Answer: The TGI was 2190 nM.

Question: What about the pIC50 ([17]; Homo sapiens, Hs-578T) of the same molecule?
Answer: The pIC50 was 6.15.

Question: And the pIC50 ([18]; Homo sapiens)?
Answer: Its pIC50 is 6.15.

Question: What about the TGI ([18]; total growth inhibition) of the same molecule?
Answer: The TGI was 1310 nM.

Question: And the pIC50 ([19]; Homo sapiens)?
Answer: The pIC50 was 6.11.

Question: And the TGI [19, 34]?
Answer: Its TGI is 1.49.

Question: What about the pIC50 ([20]; Homo sapiens) of the same molecule?
Answer: Its pIC50 is 6.16.

Question: What about the TGI ([20]; total growth inhibition) of the same molecule?
Answer: The TGI was 1430 nM.

Question: And the TGI ([21]; total growth inhibition, unit assumed)?
Answer: The TGI was 1130 nM.

Question: What about the pIC50 ([21]; Homo sapiens) of the same molecule?
Answer: The pIC50 was 6.24.

Question: What about the pIC50 ([22]; Homo sapiens, IGROV-1, Ovarian Cancer) of the same molecule?
Answer: The pIC50 was 6.13.

Question: And the TGI ([22]; Ovarian Cancer, total growth inhibition)?
Answer: The TGI was 1390 nM.

Question: What about the pIC50 ([23]; Homo sapiens) of the same molecule?
Answer: Its pIC50 is 6.06.

Question: And the TGI ([23]; total growth inhibition)?
Answer: Its TGI is 1940 nM.

Question: And the TGI ([24]; Colon Cancer, total growth inhibition)?
Answer: Its TGI is 1370 nM.

Question: What about the pIC50 ([24]; Homo sapiens, HT-29, Colon Cancer) of the same molecule?
Answer: Its pIC50 is 6.17.

Question: What about the pIC50 ([25]; Homo sapiens) of the same molecule?
Answer: Its pIC50 is 6.15.

Question: What about the TGI ([25]; total growth inhibition) of the same molecule?
Answer: The TGI was 1310 nM.

Question: And the pIC50 ([26]; Homo sapiens)?
Answer: Its pIC50 is 6.17.

Question: What about the TGI ([26]; total growth inhibition) of the same molecule?
Answer: The TGI was 1260 nM.

Question: What about the pIC50 ([27]; Homo sapiens, K562, Leukemia) of the same molecule?
Answer: Its pIC50 is 6.04.

Question: And the TGI ([27]; Leukemia, total growth inhibition)?
Answer: The TGI was over 38.8.

Question: What about the TGI ([28]; total growth inhibition) of the same molecule?
Answer: Its TGI is 7410 nM.

Question: And the pIC50 ([28]; Homo sapiens)?
Answer: The pIC50 was 5.68.

Question: What about the TGI ([29]; CNS Cancer, total growth inhibition) of the same molecule?
Answer: Its TGI is 1.34.

Question: And the pIC50 ([29]; Homo sapiens, U-251, CNS Cancer)?
Answer: Its pIC50 is 6.17.

Question: What about the pIC50 ([30]; Homo sapiens) of the same molecule?
Answer: The pIC50 was 5.93.

Question: And the TGI ([30]; total growth inhibition)?
Answer: The TGI was 3.71.

Question: What about the TGI ([31]; total growth inhibition) of the same molecule?
Answer: The TGI was 1560 nM.

Question: What about the pIC50 ([31]; Homo sapiens) of the same molecule?
Answer: The pIC50 was 6.14.

Question: What about the TGI ([32]; total growth inhibition) of the same molecule?
Answer: Its TGI is 1360 nM.

Question: And the pIC50 ([32]; Homo sapiens)?
Answer: The pIC50 was 6.15.

Question: What about the TGI ([33]; total growth inhibition) of the same molecule?
Answer: The TGI was 1300 nM.

Question: What about the pIC50 ([33]; Homo sapiens) of the same molecule?
Answer: Its pIC50 is 6.19.
